Legend:
[1] = target: ATP-dependent translocase ABCB1 (Homo sapiens, UniProt P08183); test: Inhibition of P-gp in human A2780 cells; assay type: cell-based; details: for Activity: human, a2780
[2] = target: ATP-binding cassette sub-family C member 2 (Homo sapiens, UniProt Q92887); test: Inhibition of human MRP2 expressed in dog MDCK2 cells; assay type: cell-based, MDCK-II; details: for Activity: human, mdck-ii
[3] = target: Multidrug resistance-associated protein 1 (Homo sapiens, UniProt P33527); test: Inhibition of human MRP1 in human 2008 cells assessed as increase in calcein-AM accumulation; assay type: cell-based
Multidrug resistance-associated protein 1, sequence (P33527 whole entry): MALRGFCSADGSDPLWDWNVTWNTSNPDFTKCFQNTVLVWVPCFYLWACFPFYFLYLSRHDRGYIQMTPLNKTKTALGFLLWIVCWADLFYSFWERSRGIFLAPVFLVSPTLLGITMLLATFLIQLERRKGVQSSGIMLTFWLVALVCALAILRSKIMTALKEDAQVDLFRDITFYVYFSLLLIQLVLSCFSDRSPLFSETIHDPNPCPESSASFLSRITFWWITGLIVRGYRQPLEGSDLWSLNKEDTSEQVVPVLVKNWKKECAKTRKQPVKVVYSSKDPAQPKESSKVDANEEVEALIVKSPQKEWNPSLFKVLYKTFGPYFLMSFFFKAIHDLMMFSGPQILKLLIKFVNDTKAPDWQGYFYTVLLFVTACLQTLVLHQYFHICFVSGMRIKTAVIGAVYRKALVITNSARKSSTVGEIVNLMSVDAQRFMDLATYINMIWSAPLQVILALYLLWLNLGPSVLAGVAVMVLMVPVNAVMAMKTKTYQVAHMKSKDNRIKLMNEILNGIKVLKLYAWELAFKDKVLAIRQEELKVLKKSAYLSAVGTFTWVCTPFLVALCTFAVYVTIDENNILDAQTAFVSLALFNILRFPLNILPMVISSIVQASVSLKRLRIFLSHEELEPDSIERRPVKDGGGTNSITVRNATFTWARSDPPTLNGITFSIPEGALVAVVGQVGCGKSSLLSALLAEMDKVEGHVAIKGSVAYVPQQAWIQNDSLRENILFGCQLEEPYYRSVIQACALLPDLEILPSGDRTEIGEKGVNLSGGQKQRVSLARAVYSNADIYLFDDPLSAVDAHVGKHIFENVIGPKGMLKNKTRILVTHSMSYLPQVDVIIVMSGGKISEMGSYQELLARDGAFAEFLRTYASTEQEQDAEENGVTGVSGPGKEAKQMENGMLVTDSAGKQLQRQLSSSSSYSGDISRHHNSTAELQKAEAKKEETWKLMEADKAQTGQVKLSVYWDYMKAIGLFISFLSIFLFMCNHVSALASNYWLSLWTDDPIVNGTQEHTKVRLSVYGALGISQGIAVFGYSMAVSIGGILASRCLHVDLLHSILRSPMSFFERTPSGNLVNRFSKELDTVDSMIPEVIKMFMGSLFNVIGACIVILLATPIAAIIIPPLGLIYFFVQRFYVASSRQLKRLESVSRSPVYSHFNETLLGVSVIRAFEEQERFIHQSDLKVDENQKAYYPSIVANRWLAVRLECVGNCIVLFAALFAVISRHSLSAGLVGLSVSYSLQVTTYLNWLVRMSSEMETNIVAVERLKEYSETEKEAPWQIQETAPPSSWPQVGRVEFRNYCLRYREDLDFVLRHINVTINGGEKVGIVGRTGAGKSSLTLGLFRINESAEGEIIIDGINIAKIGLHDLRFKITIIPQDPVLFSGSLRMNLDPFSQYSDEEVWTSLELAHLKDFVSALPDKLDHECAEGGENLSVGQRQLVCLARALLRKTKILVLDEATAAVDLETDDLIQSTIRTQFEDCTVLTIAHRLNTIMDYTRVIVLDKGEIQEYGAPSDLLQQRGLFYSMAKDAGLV

ATP-dependent translocase ABCB1, sequence (P08183 whole entry): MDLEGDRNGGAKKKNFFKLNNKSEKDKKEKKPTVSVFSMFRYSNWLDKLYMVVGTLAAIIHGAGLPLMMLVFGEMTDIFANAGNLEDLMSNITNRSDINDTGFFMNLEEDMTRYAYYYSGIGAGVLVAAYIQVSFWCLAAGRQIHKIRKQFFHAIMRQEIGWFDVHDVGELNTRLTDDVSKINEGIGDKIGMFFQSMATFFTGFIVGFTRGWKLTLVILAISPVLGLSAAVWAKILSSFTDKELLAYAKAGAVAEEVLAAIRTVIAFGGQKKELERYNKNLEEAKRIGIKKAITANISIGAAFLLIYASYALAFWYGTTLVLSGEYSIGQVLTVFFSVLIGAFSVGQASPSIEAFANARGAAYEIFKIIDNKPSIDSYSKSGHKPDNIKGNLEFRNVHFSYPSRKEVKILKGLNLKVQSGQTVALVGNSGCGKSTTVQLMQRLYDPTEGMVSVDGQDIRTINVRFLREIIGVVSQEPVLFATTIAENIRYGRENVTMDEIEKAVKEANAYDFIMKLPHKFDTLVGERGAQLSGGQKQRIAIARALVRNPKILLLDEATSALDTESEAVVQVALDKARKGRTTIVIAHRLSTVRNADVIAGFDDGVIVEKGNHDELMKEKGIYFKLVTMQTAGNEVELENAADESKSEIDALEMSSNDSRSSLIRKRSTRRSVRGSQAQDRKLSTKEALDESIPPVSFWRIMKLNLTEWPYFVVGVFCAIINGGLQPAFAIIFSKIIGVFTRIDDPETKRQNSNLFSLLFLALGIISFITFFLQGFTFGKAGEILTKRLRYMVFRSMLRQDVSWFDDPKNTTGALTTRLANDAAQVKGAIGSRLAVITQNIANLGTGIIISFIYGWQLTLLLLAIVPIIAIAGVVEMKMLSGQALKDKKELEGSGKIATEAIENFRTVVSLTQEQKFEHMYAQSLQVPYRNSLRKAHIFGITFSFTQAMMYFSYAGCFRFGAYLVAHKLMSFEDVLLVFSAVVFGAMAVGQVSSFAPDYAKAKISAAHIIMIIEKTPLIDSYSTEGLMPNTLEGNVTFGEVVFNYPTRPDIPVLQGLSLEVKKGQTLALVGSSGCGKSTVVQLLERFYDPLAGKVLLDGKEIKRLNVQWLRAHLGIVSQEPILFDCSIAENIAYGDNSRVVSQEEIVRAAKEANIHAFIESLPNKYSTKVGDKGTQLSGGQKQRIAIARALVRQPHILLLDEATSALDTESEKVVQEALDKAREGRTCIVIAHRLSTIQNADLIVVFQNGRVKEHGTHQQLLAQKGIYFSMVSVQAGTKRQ
ATP-binding cassette sub-family C member 2, sequence (Q92887 whole entry): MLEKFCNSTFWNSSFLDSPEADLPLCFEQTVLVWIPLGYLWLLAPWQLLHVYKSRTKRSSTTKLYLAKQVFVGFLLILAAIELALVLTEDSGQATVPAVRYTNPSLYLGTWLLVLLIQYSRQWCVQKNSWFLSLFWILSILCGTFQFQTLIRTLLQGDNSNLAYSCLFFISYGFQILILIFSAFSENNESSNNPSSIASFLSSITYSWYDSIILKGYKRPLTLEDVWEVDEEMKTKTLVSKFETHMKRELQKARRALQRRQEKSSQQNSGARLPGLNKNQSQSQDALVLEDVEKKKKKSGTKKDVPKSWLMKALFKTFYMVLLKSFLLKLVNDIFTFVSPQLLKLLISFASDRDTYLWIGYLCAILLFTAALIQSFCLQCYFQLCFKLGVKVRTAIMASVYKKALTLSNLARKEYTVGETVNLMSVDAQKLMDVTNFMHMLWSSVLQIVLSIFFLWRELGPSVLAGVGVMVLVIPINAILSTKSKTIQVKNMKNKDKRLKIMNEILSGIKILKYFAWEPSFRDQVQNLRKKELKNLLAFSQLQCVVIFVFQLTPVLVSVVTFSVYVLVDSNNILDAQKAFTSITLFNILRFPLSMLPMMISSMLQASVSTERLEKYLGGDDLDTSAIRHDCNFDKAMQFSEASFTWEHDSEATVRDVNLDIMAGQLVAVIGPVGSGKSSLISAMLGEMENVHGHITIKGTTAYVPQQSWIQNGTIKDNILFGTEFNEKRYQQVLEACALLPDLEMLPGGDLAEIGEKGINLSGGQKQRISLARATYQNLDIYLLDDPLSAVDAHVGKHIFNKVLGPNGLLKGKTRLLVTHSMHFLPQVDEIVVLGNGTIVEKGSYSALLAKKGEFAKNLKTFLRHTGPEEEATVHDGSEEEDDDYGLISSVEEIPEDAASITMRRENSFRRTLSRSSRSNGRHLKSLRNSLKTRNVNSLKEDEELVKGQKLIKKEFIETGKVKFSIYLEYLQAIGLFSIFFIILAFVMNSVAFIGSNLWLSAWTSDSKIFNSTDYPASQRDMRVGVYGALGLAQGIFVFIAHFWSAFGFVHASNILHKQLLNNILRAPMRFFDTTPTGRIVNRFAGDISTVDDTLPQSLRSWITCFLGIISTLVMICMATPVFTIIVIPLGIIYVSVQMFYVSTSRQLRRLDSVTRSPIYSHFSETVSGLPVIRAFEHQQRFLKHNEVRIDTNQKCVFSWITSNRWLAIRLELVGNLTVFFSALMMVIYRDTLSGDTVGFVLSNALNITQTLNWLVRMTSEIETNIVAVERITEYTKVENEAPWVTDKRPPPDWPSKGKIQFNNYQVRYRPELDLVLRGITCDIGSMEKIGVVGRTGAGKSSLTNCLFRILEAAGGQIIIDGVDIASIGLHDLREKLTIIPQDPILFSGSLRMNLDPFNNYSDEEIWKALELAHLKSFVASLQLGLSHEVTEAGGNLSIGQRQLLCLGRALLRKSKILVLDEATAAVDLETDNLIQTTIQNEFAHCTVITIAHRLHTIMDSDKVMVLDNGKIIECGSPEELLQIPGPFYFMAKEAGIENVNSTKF

In the case of `Nc1nc2sc3c(c2c(=O)s1)CCCC3`, the IC50 [1] is reported as > 200 µM and the Activity [2] is reported as “Not Active”.

In the case of `CCOC(=O)c1c(NC(=S)Nc2ccc(C(=O)O)cc2)sc2c1CCCC2`, the Activity [1] is reported as “Not Active” and the IC50 [2] is reported as > 200 µM.

With `O=C(Nc1nc2sc3c(c2c(=O)s1)CCCC3)c1ccccc1` the Activity [1] was “Not Active” and the Activity [2] was “Not Active”.

With `O=C(O)c1ccc(Nc2nc3sc4c(c3c(=O)s2)CCCC4)cc1` the Activity [1] was “Not Active”, the Activity [3] was “Active” and the IC50 [2] was 21.5 µM.

In the case of `CN(C)C(=O)CCSC(SCCC(=O)[O-])c1cccc(/C=C/c2ccc3ccc(Cl)cc3n2)c1.[Na+]` (stereo not drawn), the Activity [1] is reported as “Not Active” and the IC50 [2] is reported as 20.7 µM.

With `COc1ccc2c(c1)c(CC(=O)O)c(C)n2C(=O)c1ccc(Cl)cc1` [INDOMETHACIN] the Activity [1] was “Not Active” and the IC50 [2] was 235 µM.

From ChEMBL document CHEMBL1140042, “A 4-aminobenzoic acid derivative as novel lead for selective inhibitors of multidrug resistance-associated proteins” (Bioorg Med Chem Lett, 2008)
